# Values quoted from earlier work, collected in patent publication US20250073222A1, “METHODS FOR THE TREATMENT AND PREVENTION OF NON-VIRAL TICK-BORNE DISEASES AND SYMPTOMS THEREOF” (60 DEGREES PHARMACEUTICALS LLC, priority 2023, published 2025).
# Read-outs that look alike come from different tables or passages of the source.
# Key:
# [1] = test system: Babesia microti; conditions: animals; cited from earlier work
# [2] = test system: Babesia parasites; conditions: 100 microM for 2 h; cited from earlier work
# [3] = test system: Trypanosome brucei blood stage forms; conditions: exposure for 90 minutes; cited from earlier work
# [4] = test system: Treponema palludum; conditions: 50 or 100 microM for two hours in a 3% oxygen atmosphere; cited from earlier work
# [5] = test system: various serovars of Leptospira; conditions: exposure for as little as 30 min; cited from earlier work
# [6] = test system: Pneumocystis; conditions: mice; cited from earlier work
# [7] = test system: Babesia; conditions: mice, single doses; cited from earlier work
# [8] = test system: P. falciparum gametocytes; conditions: single dose combined with dihydroartemisinin/piperaquine; cited from earlier work
# [9] = test system: gametocytes of P. falciparum; conditions: cited from earlier work
# [10] = cited from earlier work
# [11] = test system: Babesia; conditions: one and three doses, immunocompromised mice and dogs; cited from earlier work
# [12] = coadministered with chloroquine; cited from earlier work
# [13] = loading dose of 600 mg over three days followed by weekly 200 mg for up to one year, cited from earlier work
# [14] = test system: Plasmodium vivax; conditions: 400 mg/day for three days, monotherapy, symptomatic P. vivax malaria patients; cited from earlier work
# [15] = test system: Plasmodium falciparum; conditions: 600 mg loading dose followed by 200 mg; parasite load three days after last dose; non-immune volunteers; cited from earlier work
# [16] = test system: B. rodhaini; conditions: cited from earlier work
# [17] = test system: extracellular blood stage forms of Trypanosoma brucei; conditions: cited from earlier work
# [18] = test system: intracellular amastigote forms of Leishmania major; conditions: cited from earlier work
# [19] = test system: free-living gram-negative bacteria and free-living gram-positive bacteria; conditions: cited from earlier work
# [20] = test system: B. gibsoni; conditions: splenectomized dogs; cited from earlier work
# [21] = test system: B. microti; conditions: one patient, prior rituximab; tafenoquine: approved malaria prevention dose as monotherapy for six weeks; cited from earlier work
# [22] = single dose of 20 mg/kg, Balb/c (immunocompetent) mice
# [23] = single dose of 20 mg/kg, immunocompromised SCID mice
compound,measurement,setting,value
COc1cc(NC(C)CCCN)c2nccc(C)c2c1 (centres unmarked) [4-methyl substituted primaquine],efficacy against Babesia microti compared with primaquine,[1],more efficacious than primaquine
OO [hydrogen peroxide],effect on Babesia parasites in vitro,[2],kills Babesia parasites in vitro
same,concentration that killed blood stage forms,[3],approximately 140 microM
same,effect on growth,[4],significantly inhibited
same,concentrations that killed,[5],< 180 µM
COc1cc(NC(C)CCCN)c2ncccc2c1 (centres unmarked) [primaquine],cure of Pneumocystis infections,[6],must be combined with clindamycin to achieve the same outcome
same,dose that cleared Babesia parasitemia,[7],100 mg/kg
same,time until gametocyte infectivity was statistically lower than reference values,[8],by two days post-dosing
same,effect on gametocytes of P. falciparum,[9],killed by site specific (in bone marrow) excess production of hydrogen peroxide
same,half-life,[10]; in vivo,approximately 6 hours
"COc1cc(C)c2c(Oc3cccc(C(F)(F)F)c3)c(OC)cc(NC(C)CCCN)c2n1 (centres unmarked) [tafenoquine, N(4)-[2,6-Dimethoxy-4-methyl-5-[3-(trifluoromethyl)phenoxy]quinolin-8-yl]pentane-1,4-diamine]",clearance and cure of Babesia,[11],sufficient to clear and cure Babesia
same,cure of Pneumocystis infections,[6],can be administered as monotherapy to cure Pneumocystis infections
same,dose that cleared Babesia parasitemia,[7],20 mg/kg
same,effect on QTC prolongation of chloroquine,[12],did not increase the QTC prolongation
same,overall rate of adverse events relative to placebo,[13],without increasing the overall rate of adverse events
same,specific adverse events with increased risk,"[13]; reversible, not clinically significant",gastrointestinal effects [mild to moderate] and cornea verticillata
same,time by which all patients cleared blood stage parasites,[14],≤ 8 days
same,development of blood stage parasitemia after challenge,[15],none of the tafenoquine subjects did
same,effect on B. rodhaini blood stages (vacuoles),[16]; single dose of 20 mg/kg in mice,induces the formation of large vacuoles
same,parasitemia,[16]; [22],cleared parasitemia
same,survival,[16]; [22],100%
same,death,[16]; [23],death was therefore delayed
same,parasitemia,[16]; [23],cleared initial parasitemia but did not prevent relapses
same,potency of killing,[17],< 4 µM
same,potency of killing,[18],< 4 µM
same,activity against gram-negative versus gram-positive bacteria,[19],much less active against free-living gram-negative bacteria than free-living gram-positive bacteria
same,"symptoms of infection such as anorexia, elevated respiration and pulse",[20],alleviated
same,clinical outcome of the regimen,[21],the patient was cured
same,half-life in vivo compared with primaquine,[10]; FIG. 1A and FIG. 1B legend,longer half-life in vivo
